Experimental data reported in BigSolDB 2.1.

CC1(C)O[C@@H]2[C@@H](CO[C@@]3(COS(N)(=O)=O)OC(C)(C)O[C@@H]23)O1
solubility (mole fraction)
Settings | 278.15 K | 283.15 K | 288.15 K | 293.15 K | 298.15 K | 303.15 K | 308.15 K | 313.15 K | 318.15 K | 323.15 K
in 2-butoxyethanol | 0.0541 | 0.0602 | 0.0676 | 0.0756 | 0.0849 | 0.0986 | 0.111 | 0.124 | 0.14 | 0.157
in 2-ethoxyethanol | 0.11 | 0.118 | 0.126 | 0.137 | 0.149 | 0.162 | 0.173 | 0.191 | 0.209 | 0.229
in 2-methoxyethanol | 0.149 | 0.156 | 0.165 | 0.176 | 0.187 | 0.198 | 0.212 | 0.228 | 0.245 | 0.263
in 2-propoxyethanol | 0.0726 | 0.0803 | 0.089 | 0.0981 | 0.109 | 0.121 | 0.134 | 0.15 | 0.167 | 0.187
in ethanol | 0.0169 | 0.0202 | 0.0252 | 0.0315 | 0.039 | 0.0478 | 0.0628 | 0.079 | 0.102 | 0.129
in isobutanol | 0.00375 | 0.004 | 0.00525 | 0.00684 | 0.00911 | 0.0121 | 0.0166 | 0.0225 | 0.0314 | 0.0441
in isopentanol | 0.00308 | 0.00401 | 0.0052 | 0.00684 | 0.00905 | 0.0119 | 0.0147 | 0.0197 | 0.0261 | 0.0353
in isopropanol | 0.00638 | 0.00814 | 0.0106 | 0.014 | 0.0186 | 0.0247 | 0.0299 | 0.0408 | 0.0594 | 0.0818
in methanol | 0.0401 | 0.0476 | 0.0569 | 0.0683 | 0.081 | 0.0951 | 0.112 | 0.131 | 0.148 | 0.174
in n-butanol | 0.00495 | 0.00629 | 0.00804 | 0.0103 | 0.0131 | 0.0172 | 0.0231 | 0.0298 | 0.0397 | 0.0538
in n-heptanol | 0.00256 | 0.00327 | 0.00425 | 0.0054 | 0.00686 | 0.00877 | 0.0116 | 0.015 | 0.0196 | 0.0256
in n-hexanol | 0.0029 | 0.00363 | 0.00496 | 0.00628 | 0.00807 | 0.0104 | 0.0138 | 0.018 | 0.0236 | 0.0312
in n-pentanol | 0.00373 | 0.00472 | 0.00601 | 0.00747 | 0.00969 | 0.0126 | 0.0157 | 0.0207 | 0.0272 | 0.0367
in n-propanol | 0.00715 | 0.00923 | 0.0116 | 0.0148 | 0.0187 | 0.0252 | 0.0333 | 0.0439 | 0.0591 | 0.0794
